Data as given in patent publication US20210045385A1, “PYRIDAZINONE-SUBSTITUTED KETOXIMES AS HERBICIDES” (FMC Corporation, priority 2018, published 2021).

What was measured:
Assay type in all cases: in vivo
[1] = test system: Italian ryegrass (Lolium multiflorum); experiment: Test A preemergence, visual plant response rating
Summary of the method: (§1)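 Formulated in a non-phytotoxic solvent mixture including surfactant, each test chemical was sprayed onto the soil surface after sowing, or onto seedlings 2 to 10 cm high. Roughly 10 days later, plants were compared with untreated controls and rated for injury from 0 (no effect) to 100 (complete control).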

[2] = test system: barnyardgrass (Echinochloa crus-galli); experiment: Test A preemergence, visual plant response rating
Summary of the method: as §1

[3] = test system: foxtail, giant (giant foxtail, Setaria faberii); experiment: Test A preemergence, visual plant response rating
Summary of the method: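 Ratings use a 0–100 visual scale (100 = complete control) against untreated controls, scored about 10 days after greenhouse treatment. Test chemicals were formulated in surfactant-containing non-phytotoxic solvent and applied either as soil spray after planting (preemergence) or onto one- to two-leaf, 2–10 cm plants (postemergence).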

kochia (Kochia scoparia) [4] = experiment: Test A preemergence, visual plant response rating
Summary of the method: as §1

[5] = test system: pigweed (Amaranthus retroflexus); experiment: Test A preemergence, visual plant response rating
Summary of the method: as §1

[6] = test system: ragweed (common ragweed, Ambrosia elatior); experiment: Test A preemergence, visual plant response rating
Summary of the method: as §1

[7] = test system: Italian ryegrass (Lolium multiflorum); experiment: Test A postemergence, visual plant response rating
Summary of the method: as §1

[8] = test system: barnyardgrass (Echinochloa crus-galli); experiment: Test A postemergence, visual plant response rating
Summary of the method: as §1

[9] = test system: blackgrass (Alopecurus myosuroides); experiment: Test A postemergence, visual plant response rating
Summary of the method: as §1

corn (Zea mays) = experiment: Test A postemergence, visual plant response rating
Summary of the method: as §1

[10] = test system: foxtail, giant (giant foxtail, Setaria faberii); experiment: Test A postemergence, visual plant response rating
Summary of the method: as §1

[11] = test system: galium (catchweed bedstraw, Galium aparine); experiment: Test A postemergence, visual plant response rating
Summary of the method: as §1

kochia (Kochia scoparia) [12] = experiment: Test A postemergence, visual plant response rating
Summary of the method: as §1

[13] = test system: pigweed (Amaranthus retroflexus); experiment: Test A postemergence, visual plant response rating
Summary of the method: as §1

[14] = test system: ragweed (common ragweed, Ambrosia elatior); experiment: Test A postemergence, visual plant response rating
Summary of the method: as §1

[15] = test system: wheat (Triticum aestivum); experiment: Test A postemergence, visual plant response rating
Summary of the method: as §1

[16] = test system: barnyardgrass (Echinochloa crus-galli); experiment: Test B flooded paddy test, visual plant response rating; settings: 250 g ai/ha, Flood, applied to paddy water, 2-leaf stage, evaluated after 13 to 15 days
Summary of the method: (§2)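 Greenhouse paddy conditions applied: two-leaf plants, a 3 cm flood above the soil surface maintained throughout, and compound added to the water rather than the foliage. Plants were judged visually against controls at 13 to 15 days.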

[17] = test system: ducksalad (Heteranhera limosa); experiment: as above; settings: 250 g ai/ha, Flood, applied to paddy water, 2-leaf stage, evaluated after 13 to 15 days
Summary of the method: as §2

rice (Oryza sativa) = experiment: as above; settings: 250 g ai/ha, Flood, applied to paddy water, 2-leaf stage, evaluated after 13 to 15 days
Summary of the method: as §2

[18] = test system: sedge, umbrella (small-flower umbrella sedge, Cyperus difformis); experiment: as above; settings: 250 g ai/ha, Flood, applied to paddy water, 2-leaf stage, evaluated after 13 to 15 days
Summary of the method: as §2

[19] = 125 g ai/ha, preemergence, 0 to 100 scale, 0 no effect, 100 complete control
[20] = 500 g ai/ha Preemergence, approx. 10 days
[21] = 500 g ai/ha, postemergence, 0 is no effect, 100 is complete control
[22] = Postemergence, 125 g ai/ha, 0 to 100 scale (0 no effect, 100 complete control)

Structure (SMILES): CON=C(c1c(O)c(C)nn(C)c1=O)c1ccc(Cl)c2ccccc12 [Compound 40]
- Ryegrass, Italian plant response rating [1, 19]: 20
- Ryegrass, Italian plant response rating (0 to 100 scale) [1, 20]: 60
- Barnyardgrass plant response rating [2, 19]: 30
- Barnyardgrass plant response rating (0 to 100 scale) [2, 20]: 60
- Foxtail, Giant plant response rating [3, 19]: 50
- Foxtail, Giant plant response rating (0 to 100 scale) [3, 20]: 90
- Kochia plant response rating (kochia (Kochia scoparia) [4]; [19]): 0
- Kochia plant response rating (0 to 100 scale) (kochia (Kochia scoparia) [4]; [20]): 10
- Pigweed plant response rating [5, 19]: 30
- Pigweed plant response rating (0 to 100 scale) [5, 20]: 60
- Ragweed plant response rating [6, 19]: 40
- Ragweed plant response rating (0 to 100 scale) [6, 20]: 80
- Ryegrass, Italian plant response rating (0 to 100 scale) [7, 21]: 90
- Ryegrass, Italian plant response rating [7, 22]: 50
- Barnyardgrass plant response rating (0 to 100 scale) [8, 21]: 30
- Barnyardgrass plant response rating [8, 22]: 30
- Blackgrass plant response rating (0 to 100 scale) [9, 21]: 80
- Blackgrass plant response rating [9, 22]: 70
- Corn plant response rating (0 to 100 scale) (corn (Zea mays); [21]): 10
- Corn plant response rating (corn (Zea mays); [22]): 0
- Foxtail, Giant plant response rating (0 to 100 scale) [10, 21]: 50
- Foxtail, Giant plant response rating [10, 22]: 10
- Galium plant response rating (0 to 100 scale) [11, 21]: 100
- Galium plant response rating [11, 22]: 70
- Kochia plant response rating (0 to 100 scale) (kochia (Kochia scoparia) [12]; [21]): 40
- Kochia plant response rating (kochia (Kochia scoparia) [12]; [22]): 10
- Pigweed plant response rating (0 to 100 scale) [13, 21]: 40
- Pigweed plant response rating [13, 22]: 10
- Ragweed plant response rating (0 to 100 scale) [14, 21]: 80
- Ragweed plant response rating [14, 22]: 70
- Wheat plant response rating (0 to 100 scale) [15, 21]: 50
- Wheat plant response rating [15, 22]: 20
- Plant response rating, Barnyardgrass (0 to 100 scale, 0 is no effect, 100 is complete control) [16]: 0
- Plant response rating, Ducksalad (0 to 100 scale, 0 is no effect, 100 is complete control) [17]: 0
- Plant response rating, Rice (0 to 100 scale, 0 is no effect, 100 is complete control) (rice (Oryza sativa)): 0
- Plant response rating, Sedge, Umbrella (0 to 100 scale, 0 is no effect, 100 is complete control) [18]: 0
